Test results from US4526776A, “Cationic cyanato and thiocyanato complexes useful as radiodiagnostic agents” (E. I. du Pont de Nemours & Company, priority 1983, dated 1985).

Key:
[1] = tested on: hepatobiliary transit (liver, gall bladder and gastro-intestinal tract); test: Visualization of hepatobiliary transit, sequential scintillation camera images after intravenous injection; assay type: in vivo, rabbit (male New Zealand Albino); conditions: rabbit, >1 mCi (Disofenin: at least 1 mCi)
Protocol: A lyophylized vial of HEPATOLITE™ (New England Nuclear Corporation's brand of Technetium Tc99m Disofenin) is labelled with ^99m Tc-pertechnetate in accordance with manufacturer's directions. At least 1 mCi of the labelled preparation is injected intravenously into a 2.5 Kg male New Zealand Albino rabbit. The rabbit is positioned under a Searle Pho-Gamma scintallation camera in such a way that the liver and gastro-intestinal tract are within the field of view.
Greater than 1 mCi of the ^99m Tc-Thiocyanato-DMPE complex from either Example 1 or 2 is injected into a rabbit as in Example 3.

[2] = tested on: hepatobiliary transit; conditions: commercially available agent, species not stated; cited from earlier work

Row | Molecule | sequential images of hepatobiliary transit, passage and image quality [1] | time to sequential images of hepatobiliary transit (liver, gall bladder and gastro-intestinal tract) [1] | time to obtain an image of the hepatobiliary transit [2]
1 | CC(C)c1cccc(C(C)C)c1NC(=O)CN(CC(=O)O)CC(=O)O.[99Tc] [Disofenin, Technetium Tc99m Disofenin, reference compound] | initial liver uptake with gradual visualization of the gall bladder and gastro-intestinal tract, analogous to the diagnostically efficacious results obtained in clinical studies of normal healthy humans | about 30 minutes | ≤ 30 min
2 | ^99m Tc-Thiocyanato - DMPE Complex [Example 2] | rapid passage and comparable image quality of the liver, gall bladder and gastro-intestinal tract | about 10 minutes | 
